Results: US20240116882A1, “NOVEL BENZOTRIAZOLE DERIVATIVE HAVING INHIBITORY ACTIVITY AGAINST ECTONUCLEOTIDE PYROPHOSPHATASE-PHOSPHODIESTERASE, AND USE THEREOF” (TXINNO BIOSCIENCE INC., priority 2021, published 2024)
Where a name gives a salt, the structure may show the parent alone.

Target: T1, human recombinant ENPP1 enzymes (Homo sapiens, UniProt P22413)
T1 construct: purchased R & D systems
T1 sequence (P22413 1-925): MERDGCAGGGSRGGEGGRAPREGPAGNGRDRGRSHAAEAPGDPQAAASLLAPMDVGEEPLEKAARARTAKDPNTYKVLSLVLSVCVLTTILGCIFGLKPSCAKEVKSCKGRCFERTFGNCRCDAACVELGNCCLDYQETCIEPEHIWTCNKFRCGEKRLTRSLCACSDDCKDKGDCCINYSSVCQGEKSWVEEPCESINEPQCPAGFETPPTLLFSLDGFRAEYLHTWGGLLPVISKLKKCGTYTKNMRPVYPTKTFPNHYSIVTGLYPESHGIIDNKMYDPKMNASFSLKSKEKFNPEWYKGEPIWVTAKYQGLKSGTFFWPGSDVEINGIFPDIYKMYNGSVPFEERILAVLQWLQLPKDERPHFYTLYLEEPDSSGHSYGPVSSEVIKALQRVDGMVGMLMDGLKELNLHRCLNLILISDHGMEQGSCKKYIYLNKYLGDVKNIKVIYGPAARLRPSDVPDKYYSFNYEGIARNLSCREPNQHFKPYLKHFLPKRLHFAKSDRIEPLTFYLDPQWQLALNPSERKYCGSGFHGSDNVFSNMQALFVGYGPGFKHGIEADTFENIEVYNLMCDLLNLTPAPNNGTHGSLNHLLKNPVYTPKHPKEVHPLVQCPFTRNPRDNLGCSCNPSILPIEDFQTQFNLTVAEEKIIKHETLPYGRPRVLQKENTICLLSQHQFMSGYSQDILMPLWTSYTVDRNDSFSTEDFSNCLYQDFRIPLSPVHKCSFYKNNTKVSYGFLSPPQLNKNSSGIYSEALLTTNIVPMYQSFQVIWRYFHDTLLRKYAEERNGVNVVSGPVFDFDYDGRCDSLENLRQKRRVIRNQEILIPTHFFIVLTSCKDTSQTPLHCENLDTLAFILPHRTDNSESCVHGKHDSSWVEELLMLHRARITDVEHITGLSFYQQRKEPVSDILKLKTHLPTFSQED
Experiment: ENPP1 Enzyme Assay with cGAMP Substrate (AMP-Glo)
Format: biochemical
Conditions: human recombinant ENPP1, cGAMP 5 μM, 37° C. 90 minutes, AMP-Glo luminescence; read-out: Enzymatic activity (IC50)
Experimental: ENPP1 hydrolyzes nucleotides or nucleotide derivatives to produce nucleoside-5′-monophosphate and pyrophosphate. In addition, ENPP1 hydrolyzes 2′,3′-cGAMP to produce 5′-adenosine monophosphate (AMP) and 5′-guanosine monophosphate (GMP). AMP produced from the reaction is measured using the AMP-Glo® kit (Promega). The AMP-Glo® kit contains two reagents. The first reagent terminates the AMP-producing enzymatic reaction, removes ATP and converts the produced AMP into ADP. The second reagent converts ADP into ATP which is used to generate luminescence in the luciferase reaction. The amount of luminescence measured is proportional to the amount of AMP produced by ENPP1.
The final reaction solution contains 50 mM Tris (pH 8.5) buffer, 250 mM NaCl, 0.5 mM CaCl2), 1 μM ZnCl2, 5% glycerol and 1% DMSO. Serially diluted ENPP1 inhibitors (typically in the range of 10 μM to 0.5 nM) were pre-stored with human recombinant ENPP1 enzymes (R & D systems) at 3 ng/reaction and room temperature (RT) for 5 to 10 minutes. The reaction was initiated by addition of cGAMP (at a final concentration of 5 μM) and reacted at 37° C. for 90 minutes. At the end of the reaction, 10 μl of the AMP-Glo first reagent was added to stop the reaction and the result was stored at room temperature for 1 hour. After storage, 20 μl of an AMP detection solution (a mixture of AMP-Glo II reagent and Kinase-Glo at a ratio of 1:100) was added and stored at room temperature for 1 hour. Luminescence signals were measured using a Victor® plate reader (Perkin Elmer). The maximal activity control (containing enzymes and substrates in the presence of 1% DMSO; MAX) and the minimal activity control (containing substrates and 1% DMSO; MIN) were evaluated simultaneously. In each experiment, serially diluted reference ENPP1 inhibitors were tested as well. IC50, indicating % residual activity versus compound concentration was determined by fitting inhibition curves using the 3-parameter analysis of GraphPad Prism® software. Serially diluted samples of one compound were tested two or more times and an average IC50 of each compound was calculated.

IC50	SMILES
< 1 µM	COc1cc2nnn(-c3ccc(CNS(N)(=O)=O)cc3F)c2cc1F [Example 93, N-(3-fluoro-4-(6-fluoro-5-methoxy-1H-benzo[d][1,2,3]triazol-1-yl)benzyl)sulfamide]
> 10 µM	Cc1ccc2c(c1)nnn2-c1ccc(CNS(N)(=O)=O)cc1F [Example 75, N-(3-fluoro-4-(5-methyl-1H-benzo[d][1,2,3]triazol-1-yl)benzyl)sulfamide]
> 10 µM	COc1ccc2c(c1)nnn2-c1ccc2c(c1)CNCCC2 [Example 27, 8-(5-methoxy-1H-benzo[d][1,2,3]triazol-1-yl)-2,3,4,5-tetrahydro-1H-benzo[c]azepine Hydrochloride]
1 to 10 µM	COc1ccc2nn(Cc3ccc(CNS(N)(=O)=O)cc3)nc2c1 [Example 110, N-(4-((5-methoxy-2H-benzo[d][1,2,3]triazole-2-yl)benzyl)sulfamide Hydrochloride]
< 1 µM	COc1ccc2c(c1)nnn2CC1CCN(S(N)(=O)=O)CC1 [Example 45, 4-((5-methoxy-1H-benzo[d][1,2,3]triazol-1-yl)methyl)piperidine-1-sulfonamide]
< 1 µM	COc1ccc2c(c1)nnn2-c1ccc2c(c1)CN(S(N)(=O)=O)CC2 [Example 97, 7-(5-methoxy-1H-benzo[d][1,2,3]triazol-1-yl)-3,4-dihydroisoquinoline-2(1H)sulfonamide]
1 to 10 µM	NS(=O)(=O)NCc1ccc(-n2nnc3ccccc32)cc1 [Example 46, N-(4-(1H-benzo[d][1,2,3]triazol-1-yl)benzyl)sulfamide]
1 to 10 µM	COc1ccc2nn(Cc3ccc(NS(N)(=O)=O)cc3)nc2c1 [Example 109, Hydrochloride]
> 10 µM	CCOc1ccc2c(c1)nnn2-c1ccc(CNS(N)(=O)=O)cc1F [Example 76, N-(4-(5-ethoxy-1H-benzo[d][1,2,3]triazol-1-yl)-3-fluorobenzyl)sulfamide]
> 10 µM	NS(=O)(=O)NCc1ccc(-n2nnc3cc(C(F)(F)F)ccc32)c(F)c1 [Example 85]
> 10 µM	COc1ccc2c(c1)nnn2Cc1ccc(CNS(N)(=O)=O)cc1 [Example 105, N-(4-((5-methoxy-1H-benzo[d][1,2,3]triazol-1-yl)methyl)benzyl)sulfamide Hydrochloride]
1 to 10 µM	COc1ccc2c(c1)nnn2-c1ccc(N)cc1 [Example 4, 4-(5-methoxy-1H-benzo[d][1,2,3]triazol-1-yl)aniline Hydrochloride]
1 to 10 µM	COc1cc(OC)c2nnn(-c3ccc(CN)cc3)c2c1 [Example 9, 4-(4,6-dimethoxy-1H-benzo[d][1,2,3]triazol-1-yl)phenyl)methanamine Hydrochloride]
> 10 µM	NCc1ccc(-n2nnc3cc(OC(F)F)ccc32)c(F)c1 [Example 24]
< 1 µM	COc1cc2nnn(-c3ccc(CNS(N)(=O)=O)cc3)c2cc1F [Example 92, N-(4-(6-fluoro-5-methoxy-1H-benzo[d][1,2,3]triazol-1-yl)benzyl)sulfamide]
> 10 µM	COc1ccc2c(c1)nnn2-c1ccc(CNC2CC2)cc1 [Example 13, N-(4-(5-methoxy-1H-benzo[d][1,2,3]triazol-1-yl)-benzyl)cyclopropanamine Hydrochloride]
1 to 10 µM	COc1cc2nnn(-c3ccc(CN)cc3)c2cc1OC [Example 10, 4-(5,6-dimethoxy-1H-benzo[d][1,2,3]triazol-1-yl)phenyl)methanamine Hydrochloride]
> 10 µM	CCS(=O)(=O)NCc1ccc(-n2nnc3cc(OC)ccc32)c(F)c1 [Example 113, N-(3-fluoro-4-(5-methoxy-1H-benzo[d][1,2,3]triazol-1-yl)benzyl)ethanesulfonamide]
1 to 10 µM	COc1ccc2c(c1)nnn2-c1cccc(NS(N)(=O)=O)c1 [Example 47, N-(3-(5-methoxy-1H-benzo[d][1,2,3]triazol-1-yl)phenyl)sulfamide]
> 10 µM	NS(=O)(=O)NCc1ccc(-n2nnc3cc(OC(F)(F)F)ccc32)cc1 [Example 89]
> 10 µM	COc1ccc2c(ccn2-c2ccc(CNS(N)(=O)=O)cc2)c1 [Example 122, N-(4-(5-methoxy-1H-indol-1-yl)benzyl)sulfamide]
< 1 µM	COc1ccc2c(c1)nnn2-c1cc2c(cc1F)CN(S(N)(=O)=O)CC2 [Example 101, 7-fluoro-6-(5-methoxy-1H-benzo[d][1,2,3]triazol-1-yl)-3,4-dihydroisoquinoline-2(1H)-sulfonamide]
> 10 µM	CCOc1ccc2c(c1)nnn2-c1ccc(CN)cc1F [Example 19]

SMILES	IC50
CCOP(=O)(NCc1ccc(-n2nnc3cc(OC)ccc32)c(F)c1)OCC [Example 117, diethyl-(3-fluoro-4-(5-methoxy-1H-benzo[d][1,2,3]triazol-1-yl)benzyl)phosphoamidite]	> 10 µM
